Patent US10188627B2, “PPAR agonists, compounds, pharmaceutical compositions, and methods of use thereof” (Mitobridge, Inc., priority 2014, dated 2019)

Key:
[1] = Pharmacokinetic screening, iv; type: in vivo; conditions: CD-1 mice, 3 mg/kg iv
Human PPARδ LBD = Human PPARδ LBD (Homo sapiens (Human), UniProt Q03181); assay: PPAR delta transactivation (PPARδ Activity Screen, GAL4-PPARδ LBD luciferase reporter in CV-1 cells); type: cell-based
Protocol: Cell Culture and Transfection:
CV-1 cells were grown in DMEM+10% charcoal stripped FCS. Cells were seeded into 384-well plates the day before transfection to give a confluency of 50-80% at transfection. A total of […] containing 0.64 micrograms pCMX-PPARDelta LBD, 0.1 micrograms pCMXβGal, 0.08 micrograms pGLMH2004 reporter and 0.02 micrograms pCMX empty vector was transfected per well using FuGene transfection reagent according to the manufacturer's instructions (Roche). Cells were allowed to express protein for 48 h followed by addition of compound.
Human PPARδ was used to PCR amplify the PPARδ LBD. […] Ensuing fusions were verified by sequencing.
Compounds: All compounds were dissolved in DMSO and diluted 1:1000 upon addition to the cells. Compounds were tested in quadruple in concentrations ranging from 0.001 to 100 μM. Cells were treated with compound for 24 h followed by luciferase assay. Each compound was tested in at least two separate experiments.
Statistical Methods: The activity of a compound is calculated as fold induction compared to an untreated sample. For each compound the efficacy (maximal activity) is given as a relative activity compared to GW501516, a PPARδ agonist. […] EC50 values were calculated via non-linear regression using GraphPad PRISM (GraphPad Software, San Diego, Calif.).

FGF1a promoter = assay: Luciferase reporter assay of FGF1a promoter co-transfected with PPARδ; type: cell-based; conditions: PPARδ with or without ligand
[2] = tested on: C57BL6J mice, thermal injury to the TA; assay: Muscle regeneration after freeze burn (thermal) injury to the TA, oral GW501516; type: in vivo

Chain of Human PPARδ LBD (Q03181 128-441 limits assumed): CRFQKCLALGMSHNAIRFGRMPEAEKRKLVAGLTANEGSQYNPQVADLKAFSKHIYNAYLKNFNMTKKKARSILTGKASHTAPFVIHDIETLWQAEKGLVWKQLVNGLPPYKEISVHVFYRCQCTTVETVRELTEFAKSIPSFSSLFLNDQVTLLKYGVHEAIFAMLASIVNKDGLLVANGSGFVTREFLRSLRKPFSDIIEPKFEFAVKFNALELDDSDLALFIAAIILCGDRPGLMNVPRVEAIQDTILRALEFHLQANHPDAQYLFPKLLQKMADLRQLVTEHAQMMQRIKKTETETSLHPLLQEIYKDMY

Compound	Mice_PK_IV_AUC (0-inf) [1]	Mice_PK_IV_Cl [1]	also measured
C/C(=C\COc1ccccc1CN(C)C(=O)c1ccc(-c2ccco2)c(Cl)c1)CCC(=O)O [Compound 8d, (E)-6-(2-((3-chloro-4-(furan-2-yl)-N-methylbenzamido)methyl)phenoxy)-4-methylhex-4-enoic acid]	1443.00 ng·h/mL	34.65 mL/min/kg	–
C/C(=C\C(=O)O)CCCOc1ccccc1CN(C)C(=O)c1ccc(-c2ccco2)cc1 [Compound 8i, (E)-6-(2-((4-(furan-2-yl)-N-methylbenzamido)methyl)phenoxy)-3-methylhex-2-enoic acid]	4691.00 ng·h/mL	10.65 mL/min/kg	–
C/C(=C\COc1ccccc1CN(C)C(=O)c1ccc(-c2ccco2)c(F)c1)CCC(=O)O [Compound 8c, (E)-6-(2-((3-fluoro-4-(furan-2-yl)-N-methylbenzamido)methyl)phenoxy)-4-methylhex-4-enoic acid]	1459.00 ng·h/mL	34.30 mL/min/kg	–
CN(Cc1ccccc1OCCC/C=C/C(=O)O)C(=O)c1ccc(-c2ccco2)cc1 [Compound 8cc, (E)-6-(2-((4-(furan-2-yl)-N-methylbenzamido)methyl)phenoxy)hex-2-enoic acid]	748.00 ng·h/mL	66.87 mL/min/kg	–
C/C(=C\COc1ccc(C2CC2)cc1CN(C)C(=O)c1ccc(-c2ccco2)cc1)CCC(=O)O [Compound 8bb, (E)-6-(4-cyclopropyl-2-((4-(furan-2-yl)-N-methylbenzamido)methyl)phenoxy)-4-methylhex-4-enoic acid]	–	–	inhibition at 10 µM (Human PPARδ LBD; CV-1, @ 10 uM): 58%
C/C(=C\COc1ccccc1CN(C)C(=O)c1ccc(-c2ccc(C)o2)cc1)CCC(=O)O [Compound 8e, (E)-4-methyl-6-(2-((N-methyl-4-(5-methylfuran-2-yl)benzamido)methyl)phenoxy)hex-4-enoic acid]	2166.00 ng·h/mL	23.10 mL/min/kg	–
CN(Cc1ccccc1/C=C/CCCCC(=O)O)C(=O)c1ccc(-c2ccco2)cc1 [Compound 8l, (E)-7-(2-((4-(furan-2-yl)-N-methylbenzamido)methyl)phenyl)hept-6-enoic acid]	5161.00 ng·h/mL	9.68 mL/min/kg	–
CC(CCOc1ccccc1CN(C)C(=O)c1ccc(-c2ccco2)cc1)CCC(=O)O (centres unmarked) [Compound 8h, 6-(2-((4-(furan-2-yl)-N-methylbenzamido)methyl)phenoxy)-4-methylhexanoic acid]	11843.00 ng·h/mL	4.20 mL/min/kg	–
C/C(=C\COc1ccc(C(F)(F)F)cc1CN(C)C(=O)c1ccc(-c2ccco2)cc1)CCC(=O)O [Compound 8aa, (E)-6-(2-((4-(furan-2-yl)-N-methylbenzamido)methyl)-4-(trifluoromethyl)phenoxy)-4-methylhex-4-enoic acid]	–	–	EC50 (Human PPARδ LBD; CV-1 cells, 24 h): 683 nM
Cc1cc2cc(C(=O)N(C)Cc3ccccc3OCCCCCC(=O)O)ccc2o1 [Comparator Cmpd. 3, reference compound]	[AUC (0-inf) = 1788.0 ng * hr/ml]	Mice_PK_IV_Cl = 27.95 ml/min/kg	–
Cc1cc(SCc2sc(-c3ccc(C(F)(F)F)cc3)nc2C)ccc1OCC(=O)O [GW501516]	–	–	induction of FGF1a (luciferase reporter) (FGF1a promoter): induction of FGF1a; Evans Blue dye uptake, proportion of muscle CSA stained ([2]; 5 mg/kg orally, 4 days prior to and 5 days after injury, 5 days after the injury): 4.9%; expression of inflammatory marker genes by QPCR ([2]; 3 days after the injury): significantly reduced; reduction in the proportion of stained area ([2]; 5 days after the injury, versus vehicle): 34.7%; PPARδ target genes (PDK4, CPT1b, and catalase) in TA by QPCR ([2]; 9 day treatment): Up-regulation; myoblast proliferation (BrdU positive nuclei) ([2]; BrdU injection at 48 hours after the injury): promoted myoblast proliferation; number of quiescent satellite cells ([2]; after 9 days or 4 weeks of ligand treatment): an increase in the number of quiescent satellite cells was not observed
C/C(=C\COc1ccccc1CN(C)C(=O)c1ccc2oc(C)cc2c1)CCC(=O)O [Compound 8f, (E)-6-(2-((N,2-dimethylbenzofuran-5-carboxamido)methyl)phenoxy)-4-methylhex-4-enoic acid]	–	40.02 mL/min/kg	–
C/C(=C\CCCOc1ccccc1CN(C)C(=O)c1ccc(-c2ccco2)cc1)C(=O)O [Compound 8k, (E)-6-(2-((4-(furan-2-yl)-N-methylbenzamido)methyl)phenoxy)-2-methylhex-2-enoic acid]	12804.00 ng·h/mL	3.92 mL/min/kg	–
C/C(=C\COc1ccc(F)cc1CN(C)C(=O)c1ccc(-c2ccco2)cc1)CCC(=O)O [Compound 8g, (E)-6-(4-fluoro-2-((4-(furan-2-yl)-N-methylbenzamido)methyl)phenoxy)-4-methylhex-4-enoic acid]	2195.00 ng·h/mL	23.00 mL/min/kg	–

The next lines start with results.

Mice_PK_IV_AUC (0-inf) [1]	Mice_PK_IV_Cl [1]	Compound	also measured
622.50 ng·h/mL	80.32 mL/min/kg	CN(Cc1ccccc1OCc1cccc(CC(=O)O)c1)C(=O)c1ccc(-c2ccco2)cc1 [Compound 8q, 2-(3-((2-((4-(furan-2-yl)-N-methylbenzamido)methyl)phenoxy)methyl)phenyl)acetic acid]	–
30142.00 ng·h/mL	1.70 mL/min/kg	CN(Cc1ccccc1OCCC[C@H]1CC1C(=O)O)C(=O)c1ccc(-c2ccco2)cc1 (single isomer, unassigned) [Compound 8u, (1R*,2S*)-2-(3-(2-((4-(furan-2-yl)-N-methylbenzamido)methyl)phenoxy)propyl) cyclopropane-1-carboxylic acid]	–
48454.90 ng·h/mL	1.03 mL/min/kg	CN(Cc1ccccc1OCCCCC(C)(C)C(=O)O)C(=O)c1ccc(-c2ccco2)cc1 [Compound 8s, 6-(2-((4-(furan-2-yl)-N-methylbenzamido)methyl)phenoxy)-2,2-dimethylhexanoic acid]	–
288.90 ng·h/mL	173.05 mL/min/kg	CN(Cc1ccccc1OCc1cccc(CCC(=O)O)c1)C(=O)c1ccc(-c2ccco2)cc1 [Compound 8p, 3-(3-((2-((4-(furan-2-yl)-N-methylbenzamido)methyl)phenoxy)methyl)phenyl)propanoic acid]	–
–	3.08 mL/min/kg	CN(Cc1ccccc1OCCCC1CC1C(=O)O)C(=O)c1ccc(-c2ccco2)cc1 (centres unmarked) [Compound 8t, 2-(3-(2-((4-(furan-2-yl)-N-methylbenzamido)methyl)phenoxy)propyl) cyclopropane-1-carboxylic acid]	–
–	1.70 mL/min/kg	CN(Cc1ccccc1OCCC[C@H]1C[C@H]1C(=O)O)C(=O)c1ccc(-c2ccco2)cc1 (single isomer, unassigned) [Compound 8w]	–
–	1.90 mL/min/kg	CN(Cc1ccccc1OCCC[C@@H]1C[C@@H]1C(=O)O)C(=O)c1ccc(-c2ccco2)cc1 (single isomer, unassigned) [Compound 8x]	–
11397.00 ng·h/mL	2.78 mL/min/kg	CC(CCCCOc1ccccc1CN(C)C(=O)c1ccc(-c2ccco2)cc1)C(=O)O (centres unmarked) [Compound 8o, 6-(2-((4-(furan-2-yl)-N-methylbenzamido)methyl)phenoxy)-2-methylhexanoic acid]	–
–	5.10 mL/min/kg	C/C(=C\COc1ccc(C)cc1CN(C)C(=O)c1ccc(-c2ccco2)cc1)CCC(=O)O [Compound 8n, (E)-6-(2-((4-(furan-2-yl)-N-methylbenzamido)methyl)-4-methylphenoxy)-4-methylhex-4-enoic acid]	–
